From PubChem BioAssay AID248 (DTP/NCI, 2004)
Values joined by “and” are separate entries in the source; they are usually repeats but may differ in a detail not shown here. Equal values may be shown once. Inconclusive results and toxic doses are left out.

System: L1210 leukemia ip in BDF1 mice, survival T/C
Test: NCI In Vivo Anticancer Drug Screen. Data for tumor model L1210 Leukemia (intraperitoneal) in B6D2F1 (BDF1) mice
Conditions: endpoint: mean survival time, higher = longer survival
Procedure, shortened: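 Value reflects the ratio of survival in compound-treated mice to survival in vehicle-treated controls, with both groups carrying the same transplanted tumor.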

[1] = dose: 100.0 mg/kg/injection, schedule: Q01DX001 (ip), vehicle: saline
[2] = dose: 200.0 mg/kg/injection, schedule: Q01DX001 (ip), vehicle: saline
[3] = dose: 400.0 mg/kg/injection, schedule: Q01DX001 (ip), vehicle: saline
[4] = dose: 100.0 mg/kg/injection, schedule: Q04DX003 (ip), vehicle: saline
[5] = dose: 200.0 mg/kg/injection, schedule: Q04DX003 (ip), vehicle: saline
[6] = dose: 400.0 mg/kg/injection, schedule: Q04DX003 (ip), vehicle: saline
[7] = dose: 100.0 mg/kg/injection, schedule: Q04DX003 (ip), vehicle: saline with Tween-80
[8] = dose: 200.0 mg/kg/injection, schedule: Q01DX009 (ip), vehicle: Klucel (hydroxypropylcellulose) (HPC)
[9] = dose: 200.0 mg/kg/injection, schedule: Q04DX003 (ip), vehicle: saline with Tween-80
[10] = dose: 400.0 mg/kg/injection, schedule: Q04DX003 (ip), vehicle: saline with Tween-80
[11] = dose: 100.0 mg/kg/injection, schedule: Q01DX009 (ip), vehicle: saline with Tween-80
[12] = dose: 200.0 mg/kg/injection, schedule: Q01DX009 (ip), vehicle: saline with Tween-80
[13] = dose: 400.0 mg/kg/injection, schedule: Q01DX009 (ip), vehicle: saline with Tween-80
[14] = dose: 100.0 mg/kg/injection, schedule: Q04DX003 (ip), vehicle: Klucel (hydroxypropylcellulose) (HPC)
[15] = dose: 200.0 mg/kg/injection, schedule: Q04DX003 (ip), vehicle: Klucel (hydroxypropylcellulose) (HPC)

## NC(=O)c1ccc(NC(=O)/C=C/C(=O)Nc2ccc(C(N)=O)cn2)nc1
dose: 1.0 mg/kg/injection, schedule: Q01DX001 (ip), vehicle: saline
  T/C: 100 % of control
dose: 1.0 mg/kg/injection, schedule: Q01DX Z (ip), vehicle: saline
  T/C: 101 % of control and 105 % of control and 113 % of control
dose: 2.0 mg/kg/injection, schedule: Q01DX001 (ip), vehicle: saline
  T/C: 100 % of control
dose: 2.0 mg/kg/injection, schedule: Q01DX Z (ip), vehicle: saline
  T/C: 87 % of control
dose: 4.0 mg/kg/injection, schedule: Q01DX001 (ip), vehicle: saline
  T/C: 100 % of control
dose: 4.0 mg/kg/injection, schedule: Q01DX Z (ip), vehicle: saline
  T/C: 99 % of control
dose: 5.0 mg/kg/injection, schedule: Q01DX001 (ip), vehicle: saline
  T/C: 107 % of control
dose: 5.0 mg/kg/injection, schedule: Q04DX003 (ip), vehicle: saline
  T/C: 107 % of control
dose: 8.0 mg/kg/injection, schedule: Q01DX001 (ip), vehicle: saline
  T/C: 102 % of control
dose: 8.0 mg/kg/injection, schedule: Q01DX Z (ip), vehicle: saline
  T/C: 107 % of control and 91 % of control
dose: 10.0 mg/kg/injection, schedule: Q01DX001 (ip), vehicle: saline
  T/C: 98 % of control
dose: 11.25 mg/kg/injection, schedule: Q01DX009 (ip), vehicle: saline
  T/C: 93 % of control
dose: 13.0 mg/kg/injection, schedule: Q04DX003 (ip), vehicle: acetone
  T/C: 104 % of control
dose: 13.0 mg/kg/injection, schedule: Q04DX003 (ip), vehicle: saline
  T/C: 109 % of control
dose: 20.0 mg/kg/injection, schedule: Q01DX001 (ip), vehicle: saline
  T/C: 104 % of control
dose: 20.0 mg/kg/injection, schedule: Q04DX003 (ip), vehicle: acetone
  T/C: 109 % of control
dose: 20.0 mg/kg/injection, schedule: Q04DX003 (ip), vehicle: saline
  T/C: 109 % of control
dose: 30.0 mg/kg/injection, schedule: Q04DX003 (ip), vehicle: acetone
  T/C: 98 % of control
dose: 30.0 mg/kg/injection, schedule: Q04DX003 (ip), vehicle: saline
  T/C: 109 % of control
dose: 45.0 mg/kg/injection, schedule: Q04DX003 (ip), vehicle: saline
  T/C: 88 % of control

## Oc1ccccc1C=Nc1ccc(Cc2ccc(N=Cc3ccccc3O)cc2)cc1
[1]
  T/C: 96 % of control
dose: 150.0 mg/kg/injection, schedule: Q04DX003 (ip), vehicle: other
  T/C: 104 % of control
[2]
  T/C: 90 % of control
dose: 300.0 mg/kg/injection, schedule: Q04DX003 (ip), vehicle: other
  T/C: 86 % of control
[3]
  T/C: 90 % of control

## Cc1ccccc1-n1nnc2ccccc2c1=O
[1]
  T/C: 95 % of control
[4]
  T/C: 95 % of control
[2]
  T/C: 92 % of control
[5]
  T/C: 115 % of control
[3]
  T/C: 89 % of control
[6]
  T/C: 88 % of control

## CC1=CC(=O)C(C(O)(C(F)(F)Cl)C(F)(F)Cl)C(C)(C)C1 (stereo not drawn)
dose: 100.0 mg/kg/injection, schedule: Q01DX009 (ip), vehicle: Klucel (hydroxypropylcellulose) (HPC)
  T/C: 98 % of control
[7]
  T/C: 102 % of control
[8]
  T/C: 103 % of control
[9]
  T/C: 96 % of control
dose: 400.0 mg/kg/injection, schedule: Q01DX009 (ip), vehicle: Klucel (hydroxypropylcellulose) (HPC)
  T/C: 97 % of control
[10]
  T/C: 109 % of control

## CCOC(=O)C(Br)(C(=O)OCC)C(c1ccccc1)c1ccccc1
[11]
  T/C: 98 % of control
[12]
  T/C: 96 % of control
[13]
  T/C: 93 % of control

## CNC(=O)Oc1coc(CCl)cc1=O
dose: 37.5 mg/kg/injection, schedule: Q01DX001 (ip), vehicle: other
  T/C: 106 % of control
dose: 75.0 mg/kg/injection, schedule: Q01DX001 (ip), vehicle: other
  T/C: 101 % of control
dose: 150.0 mg/kg/injection, schedule: Q01DX001 (ip), vehicle: other
  T/C: 104 % of control

## COC(=O)CCCNC(=O)/C=C1/c2cc(OC)c(OC)cc2CCC1S(=O)(=O)OC (stereo not drawn)
dose: 100.0 mg/kg/injection, schedule: Q01DX009 (ip), vehicle: saline
  T/C: 100 % of control
[4]
  T/C: 105 % of control
dose: 200.0 mg/kg/injection, schedule: Q01DX009 (ip), vehicle: saline
  T/C: 110 % of control
[5]
  T/C: 97 % of control
dose: 400.0 mg/kg/injection, schedule: Q01DX009 (ip), vehicle: saline
  T/C: 88 % of control
[6]
  T/C: 100 % of control

## CC(=O)c1ccc(Br)c([N+](=O)[O-])c1
[1]
  T/C: 95 % of control
[2]
  T/C: 98 % of control
[3]
  T/C: 103 % of control

## COc1cc(Oc2c(OC)cc(C(C)=O)cc2OC)cc(OC)c1OC
[7]
  T/C: 101 % of control
[9]
  T/C: 97 % of control
[10]
  T/C: 97 % of control

## OC(/C(=C(/c1ccccc1)c1ccc(Cl)cc1)c1ccccc1)(c1ccccc1)c1ccccc1
[11]
  T/C: 98 % of control
[12]
  T/C: 95 % of control
[13]
  T/C: 98 % of control

## CC(C)(Oc1ccc(Cl)cc1)C(=O)O (tested in a mixture with another compound)
[4]
  T/C: 94 % of control
[5]
  T/C: 91 % of control
[6]
  T/C: 91 % of control

## Cc1ccc(/C=C2/COC/C(=C\c3ccc(C)cc3)C2=O)cc1
dose: 6.0 mg/kg/injection, schedule: Q01DX009 (ip), vehicle: saline
  T/C: 96 % of control
dose: 12.0 mg/kg/injection, schedule: Q01DX001 (ip), vehicle: saline
  T/C: 88 % of control
dose: 12.0 mg/kg/injection, schedule: Q01DX009 (ip), vehicle: saline
  T/C: 94 % of control
dose: 25.0 mg/kg/injection, schedule: Q01DX001 (ip), vehicle: saline
  T/C: 93 % of control
dose: 25.0 mg/kg/injection, schedule: Q01DX009 (ip), vehicle: saline
  T/C: 109 % of control

## O=C(c1ccccc1)C(C(=O)c1ccccc1)C(c1ccccc1)C(C(=O)c1ccccc1)C(c1ccccc1)c1ccccc1 (stereo not drawn)
[1]
  T/C: 87 % of control
[2]
  T/C: 89 % of control
[3]
  T/C: 92 % of control and 91 % of control

## CC1(C)N=C(N)N=C(N)N1c1ccc(OCc2ccc(C(=O)Nc3cccc(S(=O)(=O)F)c3)cc2)c(Cl)c1
dose: 25.0 mg/kg/injection, schedule: Q01DX009 (ip), vehicle: Klucel (hydroxypropylcellulose) (HPC)
  T/C: 100 % of control
[14]
  T/C: 124 % of control
[8]
  T/C: 86 % of control
[15]
  T/C: 162 % of control and 168 % of control
dose: 400.0 mg/kg/injection, schedule: Q04DX003 (ip), vehicle: Klucel (hydroxypropylcellulose) (HPC)
  T/C: 105 % of control and 106 % of control and 116 % of control

## Cc1coc(NS(=O)(=O)c2ccc(N=Nc3ccc(O)c4ncccc34)cc2)c1C
[1]
  T/C: 102 % of control
[2]
  T/C: 108 % of control

## CC1(C)N=C(N)N=C(N)N1c1cccc(C(=O)Nc2ccc(S(=O)(=O)F)cc2)c1
dose: 0.8 mg/kg/injection, schedule: Q01DX009 (ip), vehicle: saline
  T/C: 98 % of control
dose: 4.0 mg/kg/injection, schedule: Q01DX009 (ip), vehicle: saline
  T/C: 101 % of control
dose: 20.0 mg/kg/injection, schedule: Q01DX009 (ip), vehicle: saline
  T/C: 98 % of control

## CN1OCC2CCCC(c3ccccc3)C21 (stereo not drawn)
[14]
  T/C: 97 % of control
[15]
  T/C: 100 % of control

## Nc1cc(=S)c2[nH]cnc2[nH]1
dose: 100.0 mg/kg/injection, schedule: Q01DX001 (ip), vehicle: Klucel (hydroxypropylcellulose) (HPC)
  T/C: 92 % of control
dose: 400.0 mg/kg/injection, schedule: Q01DX001 (ip), vehicle: Klucel (hydroxypropylcellulose) (HPC)
  T/C: 88 % of control

## O=C1c2ccccc2-c2cccc3ccc(C4CCCCC4)c1c23
dose: 100.0 mg/kg/injection, schedule: Q01DX001 (ip), vehicle: saline with Tween-80
  T/C: 88 % of control
dose: 200.0 mg/kg/injection, schedule: Q01DX001 (ip), vehicle: saline with Tween-80
  T/C: 88 % of control
dose: 400.0 mg/kg/injection, schedule: Q01DX001 (ip), vehicle: saline with Tween-80
  T/C: 92 % of control

## CCOCC[n+]1ccc(C)cc1
[4]
  T/C: 107 % of control
[5]
  T/C: 95 % of control

## Cc1cc(N(CCCl)CCCl)ccc1/C=N\Nc1nncn1N
dose: 25.0 mg/kg/injection, schedule: Q01DX009 (ip), vehicle: carboxymethylcellulose (CMC)
  T/C: 122 % of control
dose: 100.0 mg/kg/injection, schedule: Q01DX001 (ip), vehicle: carboxymethylcellulose (CMC)
  T/C: 100 % of control
dose: 100.0 mg/kg/injection, schedule: Q01DX009 (ip), vehicle: carboxymethylcellulose (CMC)
  T/C: 154 % of control
dose: 200.0 mg/kg/injection, schedule: Q01DX001 (ip), vehicle: carboxymethylcellulose (CMC)
  T/C: 100 % of control
dose: 400.0 mg/kg/injection, schedule: Q01DX001 (ip), vehicle: carboxymethylcellulose (CMC)
  T/C: 102 % of control

## c1ccc([Si](c2ccccc2)(c2cccs2)c2cccs2)cc1
[11]
  T/C: 103 % of control
[12]
  T/C: 95 % of control

## Cc1ccccc1C(C)C
[7]
  T/C: 94 % of control
[9]
  T/C: 98 % of control
[10]
  T/C: 91 % of control
